{"source": "ChEMBL document CHEMBL5053524", "about": "“Novel Electrophilic Warhead Targeting a Triple-Negative Breast Cancer Driver in Live Cells Revealed by \"Inverse Drug Discovery\"” (J Med Chem, 2021)", "key": {"[1]": {"target": "Glutathione S-transferase P (Homo sapiens, UniProt P09211)", "sequence (P09211 whole entry)": "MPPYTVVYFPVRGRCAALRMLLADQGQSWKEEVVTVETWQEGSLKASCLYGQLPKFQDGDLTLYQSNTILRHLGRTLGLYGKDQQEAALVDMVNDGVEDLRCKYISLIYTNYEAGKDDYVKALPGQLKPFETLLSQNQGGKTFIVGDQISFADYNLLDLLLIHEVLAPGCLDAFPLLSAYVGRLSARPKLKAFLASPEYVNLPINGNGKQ", "experiment": "Inhibition of recombinant GSTP1 (unknown origin) using GSH substrate"}, "Bcap37": {"system": "Bcap37", "experiment": "Antiproliferative activity against human BcaP37 cells assessed as cell viability incubated for 24 hrs by CCk8 assay", "type": "functional, cell-based", "conditions": "Bcap37, 24 h"}, "MCF7": {"system": "MCF7", "experiment": "Antiproliferative activity agaisnt human MCF7 cells assessed as cell viability incubated for 24 hrs by CCK8 assay", "type": "functional, cell-based", "conditions": "MCF7, 24 h"}, "MDA-MB-468 [2]": {"system": "MDA-MB-468", "experiment": "Antiproliferative activity agaisnt human MDA-MB-468 cells assessed as cell viability incubated for 24 hrs by CCK8 assay", "type": "functional, cell-based", "conditions": "MDA-MB-468, 24 h"}, "MDA-MB-453": {"system": "MDA-MB-453", "experiment": "Antiproliferative activity agaisnt human MDA-MB-453 cells assessed as cell viability incubated for 24 hrs by CCK8 assay", "type": "functional, cell-based", "conditions": "MDA-MB-453, 24 h"}, "MDA-MB-468 [3]": {"system": "MDA-MB-468", "experiment": "Antiproliferative activity agaisnt human MDA-MB-468 cells assessed as cell viability incubated for 24 hrs in presence of GSTP1 siRNA by CCK8 assay", "type": "functional, cell-based", "conditions": "MDA-MB-468, 24 h"}, "MDA-MB-231": {"system": "MDA-MB-231", "experiment": "Antiproliferative activity agaisnt human MDA-MB-231 cells assessed as cell viability incubated for 24 hrs by CCK8 assay", "type": "functional, cell-based", "conditions": "MDA-MB-231, 24 h"}, "MDA-MB-468 [4]": {"system": "MDA-MB-468", "experiment": "Antiproliferative activity agaisnt human MDA-MB-468 cells assessed as cell viability incubated for 24 hrs in presence of scrambled siRNA by CCK8 assay", "type": "functional, cell-based", "conditions": "MDA-MB-468, 24 h"}}, "data": [{"molecule": "O=c1cc1-c1ccc(Oc2ccccc2)cc1", "values": [{"measurement": "IC50", "setting": "[1]", "result": 0.73, "unit": "µM"}]}, {"molecule": "C#CCOC(=O)CCCCc1cc1=O", "values": [{"measurement": "IC50", "setting": "Bcap37", "result": 10.6, "unit": "µM"}, {"measurement": "IC50", "setting": "[1]", "result": 1.18, "unit": "µM"}]}, {"molecule": "C#CCOc1ccc(-c2c(-c3ccc(OCC#C)cc3)c2=O)cc1", "values": [{"measurement": "IC50", "setting": "Bcap37", "result": 26.1, "unit": "µM"}]}, {"molecule": "O=c1cc1-c1ccc(OCc2ccc(-c3ccccc3)cc2)cc1", "values": [{"measurement": "IC50", "setting": "[1]", "result": 3.2, "unit": "µM"}]}, {"molecule": "C#CCOc1ccc(-c2cc2=O)cc1", "values": [{"measurement": "IC50", "setting": "Bcap37", "result": 45, "unit": "µM"}, {"measurement": "IC50", "setting": "[1]", "result": 1.64, "unit": "µM"}]}, {"molecule": "C#CCOc1ccc(-c2c(N(CC)CC)c2=O)cc1", "values": [{"measurement": "IC50", "setting": "Bcap37", "result": 46.1, "unit": "µM"}]}, {"molecule": "COc1ccc2cc(-c3cc3=O)ccc2c1", "values": [{"measurement": "IC50", "setting": "[1]", "result": 1.99, "unit": "µM"}, {"measurement": "IC50", "setting": "MCF7", "result": 14.7, "unit": "µM"}, {"measurement": "IC50", "setting": "MDA-MB-468 [2]", "result": 4.48, "unit": "µM"}, {"measurement": "IC50", "setting": "MDA-MB-453", "result": 30, "unit": "µM"}, {"measurement": "IC50", "setting": "MDA-MB-468 [3]", "result": 20.1, "unit": "µM"}, {"measurement": "IC50", "setting": "MDA-MB-231", "result": 6.14, "unit": "µM"}, {"measurement": "IC50", "setting": "MDA-MB-468 [4]", "result": 4.47, "unit": "µM"}]}, {"molecule": "O=c1cc1-c1ccc(OCc2ccccc2)cc1", "values": [{"measurement": "IC50", "setting": "[1]", "result": 0.73, "unit": "µM"}, {"measurement": "IC50", "setting": "MCF7", "result": 12.5, "unit": "µM"}, {"measurement": "IC50", "setting": "MDA-MB-468 [2]", "result": 3.47, "unit": "µM"}, {"measurement": "IC50", "setting": "MDA-MB-453", "result": 11, "unit": "µM"}, {"measurement": "IC50", "setting": "MDA-MB-468 [3]", "result": 5.02, "unit": "µM"}, {"measurement": "IC50", "setting": "MDA-MB-231", "result": 5.02, "unit": "µM"}, {"measurement": "IC50", "setting": "MDA-MB-468 [4]", "result": 3.46, "unit": "µM"}]}, {"molecule": "O=c1cc1-c1ccc2ccccc2c1", "values": [{"measurement": "IC50", "setting": "[1]", "result": 0.36, "unit": "µM"}]}]}
